These results are taken from patent US12178846B2, “Methods of using gap junctions as therapeutic targets for the treatment of degenerative disorders of the retina” (The Research Foundation for The State University of New York, priority 2014, dated 2024).

The test system of data set [1] is cells in the GCL of mouse retinas. Briefly: NMDA-induced excitotoxic cell death in the GCL of retina-eyecups. Format: cell-based. The method, then:
All animal procedures were in compliance with the NIH Guide for the Care and Use of Laboratory Animals and approved by the Institutional Animal Care and Use Committees at SUNY College of Optometry. Experiments were performed on retinas of wild type (WT), connexin knockout (KO) mice (Cx36^−/−, Cx45^−/−, and Cx36^−/−/45^−/− dKO), and their heterozygous (Het) littermates. The methods used to impale and label neurons have been described previously (Hu et al., J Neurosci 23:[…] (2003); Völgyi et al., Journal of Comparative Neurology 512:664-687 (2009)). Briefly, flattened retina-eyecups were placed in a superfusion chamber, which was mounted on the stage of a BX51WI light microscope (Olympus) within a light-tight Faraday cage. […] The retina-eyecups were superfused with a modified, oxygenated Ames medium maintained at 35° C.
Various methods were employed to produce cell death. (1) Single cell apoptosis: CytC was injected into individual RGCs or Müller cells for 15 minutes after which retinas were incubated for 4 hours in oxygenated Ames medium before fixation. After streptavidin histology, apoptotic cells were detected with an anti-active caspase 3 antibody or with Terminal deoxynucleotidyl transferase dUTP nick end labeling (TUNEL) staining. (2) Excitotoxicity: To assess the contribution of GJs to cell death within populations of RGCs and amacrine cells we conducted parallel experiments in which retinas were preincubated for 20 minutes in normal Ames medium or in one containing the GJ blockers meclofenamic acid (MFA; 50 μM) or 18-beta-glycyrrhetinic acid (18Beta-GA; 25 μM). Both control and drug-treated retinas were then exposed for 1 hour to NMDA (100-300 μM) to induce excitotoxicity followed by 4 hours in the control Ames solution. (3) Retinal ischemia: Transient in vivo retinal ischemia was induced by introducing into the anterior chamber a 33-gauge needle attached to a saline-filled reservoir (0.9% sodium chloride) that was raised above the animal so as to increase intraocular pressure (IOP) to a level […]. MFA (2 μl, 500 μM) was administered intravitreally either 30 minutes before or 3 and 24 hours following the ischemic insult. […]
Apoptotic and necrotic cell death were assessed by cell counts following: (1) staining with Live/Death Viability Assay (calcein AM/ethidium homodimer (EthD) (Invitrogen); (2) TUNEL, or, (3) labeling for activated caspase 3. For population studies, dead cells were counted manually within 500×500 μm areas (5 areas per retina) from micrographs of whole-mounts using images acquired by confocal microscope. Nuclear cell counts were made per unit length (500 μm) of frozen retinal cross-sections labeled with propidium iodide (2 μg/ml).

A further data set relates to ischemic retina. Briefly: Transient in vivo retinal ischemia-reperfusion (raised IOP), 7 days reperfusion. Also on record: species or system mouse. The method, then: Various methods were employed to produce cell death. (1) Single cell apoptosis: CytC was injected into individual RGCs or Müller cells for 15 minutes after which retinas were incubated for 4 hours in oxygenated Ames medium before fixation. After streptavidin histology, apoptotic cells were detected with an anti-active caspase 3 antibody or with Terminal deoxynucleotidyl transferase dUTP nick end labeling (TUNEL) staining. (2) Excitotoxicity: To assess the contribution of GJs to cell death within populations of RGCs and amacrine cells we conducted parallel experiments in which retinas were preincubated for 20 minutes in normal Ames medium or in one containing the GJ blockers meclofenamic acid (MFA; 50 μM) or 18-beta-glycyrrhetinic acid (18Beta-GA; 25 μM). Both control and drug-treated retinas were then exposed for 1 hour to NMDA (100-300 μM) to induce excitotoxicity followed by 4 hours in the control Ames solution. (3) Retinal ischemia: Transient in vivo retinal ischemia was induced by introducing into the anterior chamber a 33-gauge needle attached to a saline-filled reservoir (0.9% sodium chloride) that was raised above the animal so as to increase intraocular pressure (IOP) to a level […]. MFA (2 μl, 500 μM) was administered intravitreally either 30 minutes before or 3 and 24 hours following the ischemic insult. The opposite eye was cannulated, but maintained at normal IOP to serve as a normotensive control. After 40-50 minutes, the needle was withdrawn and ischemia was evidenced by corneal whitening. After 7 days of reperfusion, mice were sacrificed and eyes were processed to assess retinal damage and neuronal death. We also employed oxygen-glucose deprivation (OGD) to induce in vitro ischemia, in which retina-eyecups or isolated retinal whole-mounts were exposed continuously to either a control, oxygenated Ringer solution, or one that was glucose-free and deoxygenated by bubbling extensively with 95% N2/5% CO2 at 34° C. Following 60 minutes in the OGD environment, retinas were transferred to a control, oxygenated Ames medium for 4 hours before processing to evaluate cell death. Apoptotic and necrotic cell death were assessed by cell counts following: (1) staining with Live/Death Viability Assay (calcein AM/ethidium homodimer (EthD) (Invitrogen); (2) TUNEL, or, (3) labeling for activated caspase 3. For population studies, dead cells were counted manually within 500×500 μm areas (5 areas per retina) from micrographs of whole-mounts using images acquired by confocal microscope. Nuclear cell counts were made per unit length (500 μm) of frozen retinal cross-sections labeled with propidium iodide (2 μg/ml). In some experiments, cells counts were limited to retrograde labeled RGCs in the GCL or certain subpopulation of amacrine cells, identified by specific markers, such as calretinin (CR), calbindin (CB) and choline acetyltransferase (ChAT) in the INL. Fluorescence intensity measures were made of glial fibrillary acidic protein (GFAP), which is overexpressed in Müller glial cells following retinal injury. Expression of GFAP and connexins were quantified by analysis of confocal images with Metavue software (Molecular Devices). Average pixel fluorescence intensities were measured by using uniform rectangular areas (3-5 per image) extending either from the GCL to the outer limiting membrane for GFAP or through the IPL for connexins. The intensity values were then averaged for at least 5 images from 3-5 independent experiments and data were normalized to controls.

For the next data set, the system named is NMDA receptors. The note with it: at the concentrations tested here; cited from earlier work.
The mark [2] stands for this setting: MFA 500 μM, 2 μl intravitreal 30 min before ischemic insult.
Setting [3] is: MFA intravitreal 3 and 24 hours after transient ischemia, measured one week after insult, p<0.01.
[4] abbreviates: MFA, transient ischemia, p<0.001.

Entries after “also recorded” stand apart in the source; their conditions may differ.

For the molecule `Cc1ccc(Cl)c(Nc2ccccc2C(=O)O)c1Cl` [MFA, meclofenamic acid], the “cell viability, blocker alone” value in data set [1] was “did not affect cell viability”. The “cell death in the GCL induced by excitotoxicity” value in data set [1] (retinas preincubated in 18Beta-GA 25 μM or MFA 50 μM, then NMDA 100-300 μM 1 h, vs NMDA alone, p<0.001) is listed as “significantly reduced”. In addition, in the data set on ischemic retina (setting [2]), the “cell counts in the GCL” value is reported as “preserved” and the “retinal thickness / retinal morphology” value is recorded as “preserved; also recorded: prevented changes”. In addition, in the data set on ischemic retina (setting [3]), the GFAP expression entry was “maintenance of normal levels”, the “cell counts in the GCL” value is “maintenance of normal levels; also recorded: significantly limit” and the retinal thickness entry is “maintenance of normal levels”. Also, in the data set with ischemic retina (MFA, ischemic retinas, p>0.1), the “number of ChAT-positive ACs in the INL” value is listed as “no effect”. In addition, in the data set on ischemic retina (setting [4]), the “number of CB-immunoreactive ACs in the INL” value is on record as “prevented the loss; also recorded: largely prevented a reduction” and the “number of CR-immunoreactive ACs in the INL” value is listed as “prevented the loss”. In the data set on NMDA receptors, the “inhibitory effect on NMDA receptors in neurons” value is reported as “no inhibitory effect”.
